These results are taken from patent publication US20260285875A1, “INHIBITORS OF PARG” (858 Therapeutics, Inc., priority 2023, published 2026).

A value given as a limit tells only on which side of the number the result lay.

This assay concerns the target T1, cellular PARG (Homo sapiens, UniProt Q86W56).
T1 construct: endogenous in cells; host or cells: HeLa
Description: Nuclear PAR accumulation assay (immunofluorescence high-content imaging, MMS-treated HeLa cells). The class given is cell-based. To be noted: 1 hour compound then MMS 50 μg/mL for an additional hour. In short, it runs like this: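 HeLa cells pretreated with compound for 1 h at 37° C, then given 50 μg/mL MMS for another hour. After methanol fixation, PAR was immunostained with DAPI nuclear counterstain; per-nucleus intensity and percent PAR-positive cells were imaged at 20× (≥1,000 cells/well). IC50 from four-parameter logistic fit.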

T1 sequence (Q86W56 whole entry): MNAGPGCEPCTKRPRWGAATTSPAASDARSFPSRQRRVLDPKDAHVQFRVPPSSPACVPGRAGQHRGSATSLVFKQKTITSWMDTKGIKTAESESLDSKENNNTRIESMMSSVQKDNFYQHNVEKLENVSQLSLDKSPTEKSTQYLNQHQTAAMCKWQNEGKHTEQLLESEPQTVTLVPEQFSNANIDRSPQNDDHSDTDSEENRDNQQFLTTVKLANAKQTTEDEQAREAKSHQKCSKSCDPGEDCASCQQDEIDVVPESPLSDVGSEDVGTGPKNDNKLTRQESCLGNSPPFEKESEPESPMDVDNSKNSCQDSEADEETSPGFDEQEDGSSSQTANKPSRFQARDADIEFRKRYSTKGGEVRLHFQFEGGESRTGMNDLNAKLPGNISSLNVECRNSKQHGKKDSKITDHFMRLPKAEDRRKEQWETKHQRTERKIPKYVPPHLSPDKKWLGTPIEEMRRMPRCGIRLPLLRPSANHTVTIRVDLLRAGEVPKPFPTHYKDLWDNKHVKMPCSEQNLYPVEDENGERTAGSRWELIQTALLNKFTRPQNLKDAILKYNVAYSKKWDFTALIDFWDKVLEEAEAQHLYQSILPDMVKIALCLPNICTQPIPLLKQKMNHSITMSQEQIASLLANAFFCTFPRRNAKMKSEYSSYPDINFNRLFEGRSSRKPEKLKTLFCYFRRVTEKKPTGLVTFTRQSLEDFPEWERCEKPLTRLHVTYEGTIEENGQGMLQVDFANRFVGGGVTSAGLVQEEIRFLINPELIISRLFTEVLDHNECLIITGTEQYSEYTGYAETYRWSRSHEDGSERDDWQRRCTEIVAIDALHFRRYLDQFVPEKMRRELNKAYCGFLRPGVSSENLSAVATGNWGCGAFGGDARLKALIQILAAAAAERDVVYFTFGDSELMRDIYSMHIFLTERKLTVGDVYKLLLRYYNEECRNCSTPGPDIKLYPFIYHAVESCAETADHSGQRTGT

Regarding `C[C@@H]1CN=C2N(Cc3cnn(C)c3)C(=O)c3cc(S(=O)(=O)NC4(C)CC4)cc(N4CC(C)(N)C4)c3N21` [Example 74, (R)-9-(3-amino-3-methylazetidin-1-yl)-1-methyl-4-((1-methyl-1H-pyrazol-4-yl)methyl)-N-(1-methylcyclopropyl)-5-oxo-1,2,4,5-tetrahydroimidazo[1,2-a]quinazoline-7-sulfonamide], the IC50 fell in the range of 1000 to 10000 nM.

The compound `C[C@@H]1CN=C2N(Cc3cnn(C)c3)C(=O)c3cc(S(=O)(=O)NC4(C)CC4)cc(N4CC[C@H](N)C4)c3N21` [Example 75, (R)-9-((S)-3-aminopyrrolidin-1-yl)-1-methyl-4-((1-methyl-1H-pyrazol-4-yl)methyl)-N-(1-methylcyclopropyl)-5-oxo-1,2,4,5-tetrahydroimidazo[1,2-a]quinazoline-7-sulfonamide] registered a half-inhibitory concentration (IC50) of 100 to 1000 nM.

As to `C#C[C@@H]1CN=C2N(Cc3cnn(C)c3)C(=O)c3cc(S(=O)(=O)NC4(C)CC4)cc(C4=CCN(C)CC4)c3N21` [Example 76, (R)-1-ethynyl-9-(1-methyl-1,2,3,6-tetrahydropyridin-4-yl)-4-((1-methyl-1H-pyrazol-4-yl)methyl)-N-(1-methylcyclopropyl)-5-oxo-1,2,4,5-tetrahydroimidazo[1,2-a]quinazoline-7-sulfonamide], the IC50 is less than 100 nM.

On to `Cn1cc(CN2C(=O)c3cc(S(=O)(=O)NC4(C)CC4)ccc3N3C2=NC[C@H]3C#Cc2cnccn2)cn1` [Example 77, (R)-4-((1-methyl-1H-pyrazol-4-yl)methyl)-N-(1-methylcyclopropyl)-5-oxo-1-(pyrazin-2-ylethynyl)-1,2,4,5-tetrahydroimidazo[1,2-a]quinazoline-7-sulfonamide], for which the IC50 is less than 100 nM.

Compound `C[C@@H]1CN(c2cc(S(=O)(=O)NC3(C)CC3)cc3c2N2C(=NC[C@H]2C)N(Cc2cnn(C)c2)C3=O)CCN1` [Example 78, (R)-1-methyl-4-((1-methyl-1H-pyrazol-4-yl)methyl)-N-(1-methylcyclopropyl)-9-((R)-3-methylpiperazin-1-yl)-5-oxo-1,2,4,5-tetrahydroimidazo[1,2-a]quinazoline-7-sulfonamide] had an IC50 of 100 to 1000 nM.

`C#C[C@@H]1CN=C2N(Cc3cnn(C)c3)C(=O)c3cc(S(=O)(=O)NC4(C)CC4)cc(C4=CCNCC4)c3N21` [Example 79, (R)-1-ethynyl-4-((1-methyl-1H-pyrazol-4-yl)methyl)-N-(1-methylcyclopropyl)-5-oxo-9-(1,2,3,6-tetrahydropyridin-4-yl)-1,2,4,5-tetrahydroimidazo[1,2-a]quinazoline-7-sulfonamide] came in with an IC50 of 100 to 1000 nM.

Take `C[C@@H]1CN=C2N(Cc3cnn(C)c3)C(=O)c3cc(S(=O)(=O)NC4(C)CC4)cc(C4=CCNCC4)c3N21` [Example 80, (R)-1-methyl-4-((1-methyl-1H-pyrazol-4-yl)methyl)-N-(1-methylcyclopropyl)-5-oxo-9-(1,2,3,6-tetrahydropyridin-4-yl)-1,2,4,5-tetrahydroimidazo[1,2-a]quinazoline-7-sulfonamide]: the IC50 lay in the range of 100 to 1000 nM.

Regarding `CCN(CC)CC#C[C@@H]1CN=C2N(Cc3cnn(C)c3)C(=O)c3cc(S(=O)(=O)NC4(C)CC4)ccc3N21` [Example 81, (R)-1-(3-(diethylamino)prop-1-yn-1-yl)-4-((1-methyl-1H-pyrazol-4-yl)methyl)-N-(1-methylcyclopropyl)-5-oxo-1,2,4,5-tetrahydroimidazo[1,2-a]quinazoline-7-sulfonamide], the IC50 was less than 100 nM.

For the compound `C[C@@H]1CN=C2N(Cc3cnn(C)c3)C(=O)c3cc(S(=O)(=O)NC4(C)CC4)cc(N4CCN[C@@H](C)C4)c3N21` [Example 82, (R)-1-methyl-4-((1-methyl-1H-pyrazol-4-yl)methyl)-N-(1-methylcyclopropyl)-9-((S)-3-methylpiperazin-1-yl)-5-oxo-1,2,4,5-tetrahydroimidazo[1,2-a]quinazoline-7-sulfonamide], the IC50 is 1000 to 10000 nM.

In turn, `Cn1cc(CN2C(=O)c3cc(S(=O)(=O)NC4(C)CC4)ccc3N3C2=NC[C@H]3C#Cc2nccn2C)cn1` [Example 83, (R)-1-((1-methyl-1H-imidazol-2-yl)ethynyl)-4-((1-methyl-1H-pyrazol-4-yl)methyl)-N-(1-methylcyclopropyl)-5-oxo-1,2,4,5-tetrahydroimidazo[1,2-a]quinazoline-7-sulfonamide] gave an IC50 of less than 100 nM.

In turn, `Cc1nnc(N2C3=NC[C@@H](C)N3c3ccc(S(=O)(=O)NC4(C)CC4)cc32)s1` [Example 84, (R)-3-methyl-9-(5-methyl-1,3,4-thiadiazol-2-yl)-N-(1-methylcyclopropyl)-2,9-dihydro-3H-benzo[d]imidazo[1,2-a]imidazole-7-sulfonamide] registered an IC50 of 100 to 1000 nM.

Consider `C[C@@H]1CCN=C2N(c3nnc(C(F)F)s3)c3cc(S(=O)(=O)NC4(C)CC4)ccc3N21` [Example 85], for which the concentration for half-maximal inhibition (IC50) is less than 100 nM.

Regarding `CC1(NS(=O)(=O)c2ccc3c(c2)N(c2nnc(C(F)F)s2)C2=NOCCN23)CC1` [Example 86, 10-(5-(difluoromethyl)-1,3,4-thiadiazol-2-yl)-N-(1-methylcyclopropyl)-3,4-dihydro-10H-benzo[4,5]imidazo[2,1-c][1,2,4]oxadiazine-8-sulfonamide], the IC50 was less than 100 nM.

In turn, `Cn1cc(CN2C(=O)c3cc(S(=O)(=O)NC4(C)CC4)ccc3N3C2=NC[C@H]3C#CCN2CCCC2)cn1` [Example 87, (R)-4-((1-methyl-1H-pyrazol-4-yl)methyl)-N-(1-methylcyclopropyl)-5-oxo-1-(3-(pyrrolidin-1-yl)prop-1-yn-1-yl)-1,2,4,5-tetrahydroimidazo[1,2-a]quinazoline-7-sulfonamide] registered a half-maximal inhibitory concentration (IC50) of less than 100 nM.

On to `C[C@@H]1CN(c2cc(S(=O)(=O)NC3(C)CC3)cc3c2N2C(=NC[C@H]2C)N(Cc2cnn(C)c2)C3=O)C[C@@H](C)N1` [Example 88, (R)-9-((3R,5R)-3,5-dimethylpiperazin-1-yl)-1-methyl-4-((1-methyl-1H-pyrazol-4-yl)methyl)-N-(1-methylcyclopropyl)-5-oxo-1,2,4,5-tetrahydroimidazo[1,2-a]quinazoline-7-sulfonamide], for which the IC50 is less than 100 nM.

As for `Cn1cc(CN2C(=O)c3cc(S(=O)(=O)NC4(C)CC4)ccc3N3C2=NC[C@H]3C#CC2CNC2)cn1` [Example 89, (R)-1-(azetidin-3-ylethynyl)-4-((1-methyl-1H-pyrazol-4-yl)methyl)-N-(1-methylcyclopropyl)-5-oxo-1,2,4,5-tetrahydroimidazo[1,2-a]quinazoline-7-sulfonamide], the IC50 is 1000 to 10000 nM.

`[2H]C([2H])(c1cnn(C)c1)N1C(=O)c2cc(S(=O)(=O)NC3(C)CC3)ccc2N2C1=NC[C@@H]2C#C` [Example 90, (S)-1-ethynyl-4-((1-methyl-1H-pyrazol-4-yl)methyl-d2)-N-(1-methylcyclopropyl)-5-oxo-1,2,4,5-tetrahydroimidazo[1,2-a]quinazoline-7-sulfonamide] gave a half-maximal inhibitory concentration (IC50) of 100 to 1000 nM.

Compound `Cn1cc(C#C[C@H]2CN=C3N(Cc4cnn(C)c4)C(=O)c4cc(S(=O)(=O)NC5(C)CC5)ccc4N32)cn1` [Example 91, (S′)-1-((1-methyl-1H-pyrazol-4-yl)ethynyl)-4-((1-methyl-1H-pyrazol-4-yl)methyl)-N-(1-methylcyclopropyl)-5-oxo-1,2,4,5-tetrahydroimidazo[1,2-a]quinazoline-7-sulfonamide] came in with an IC50 of 100 to 1000 nM.

Turning to `[2H]C([2H])(c1cnn(C)c1)N1C(=O)c2cc(S(=O)(=O)NC3(C)CC3)cc(Cl)c2N2C1=NC[C@@H]2C#CC1CC1` [Example 92, (S)-9-chloro-1-(cyclopropylethynyl)-4-((1-methyl-1H-pyrazol-4-yl)methyl-d2)-N-(1-methylcyclopropyl)-5-oxo-1,2,4,5-tetrahydroimidazo[1,2-a]quinazoline-7-sulfonamide], the IC50 was in the range of 100 to 1000 nM.

Turning to `Cn1cc(CN2C(=O)c3cc(S(=O)(=O)NC4(C)CC4)ccc3N3C2=NC[C@@H]3C2CCCC2)cn1` [Example 93, (S)-1-cyclopentyl-4-((1-methyl-1H-pyrazol-4-yl)methyl)-N-(1-methylcyclopropyl)-5-oxo-1,2,4,5-tetrahydroimidazo[1,2-a]quinazoline-7-sulfonamide], the IC50 was 100 to 1000 nM.

Compound `C#C[C@H]1CN=C2N(Cc3cnn(C)c3)C(=O)c3cc(S(=O)(=O)NC4(C)CC4)cc(Br)c3N21` [Example 94, (S)-9-bromo-1-ethynyl-4-((1-methyl-1H-pyrazol-4-yl)methyl)-N-(1-methylcyclopropyl)-5-oxo-1,2,4,5-tetrahydroimidazo[1,2-a]quinazoline-7-sulfonamide] registered a half-maximal inhibitory concentration (IC50) of 100 to 1000 nM.

For `[2H]C([2H])(c1cnn(C)c1)N1C(=O)c2cc(S(=O)(=O)NC3(C)CC3)cc(Br)c2N2C1=NC[C@@H]2C#CC1CC1` [Example 95, (S)-9-bromo-1-(cyclopropylethynyl)-4-((1-methyl-1H-pyrazol-4-yl)methyl-d2)-N-(1-methylcyclopropyl)-5-oxo-1,2,4,5-tetrahydroimidazo[1,2-a]quinazoline-7-sulfonamide], the IC50 lay in the range of 100 to 1000 nM.

The compound `[2H]C([2H])(c1cnn(C)c1)N1C(=O)c2cc(S(=O)(=O)NC3(C)CC3)ccc2N2C1=NC[C@H]2C#CCC(C)C` [Example 96, (R)-4-((1-methyl-1H-pyrazol-4-yl)methyl-d2)-N-(1-methylcyclopropyl)-1-(4-methylpent-1-yn-1-yl)-5-oxo-1,2,4,5-tetrahydroimidazo[1,2-a]quinazoline-7-sulfonamide] came in with an IC50 of less than 100 nM.

`[2H]C([2H])(c1cnn(C)c1)N1C(=O)c2cc(S(=O)(=O)NC3(C)CC3)ccc2N2C1=NC[C@H]2C#Cc1cnn(C)c1` [Example 97, (R)-1-((1-methyl-1H-pyrazol-4-yl)ethynyl)-4-((1-methyl-1H-pyrazol-4-yl)methyl-d2)-N-(1-methylcyclopropyl)-5-oxo-1,2,4,5-tetrahydroimidazo[1,2-a]quinazoline-7-sulfonamide]: the IC50 was less than 100 nM.

A word on the IC50: it is the point on the concentration scale where inhibition reaches its midpoint. Read a low IC50 as higher potency.
